Key:
KOP = target: T1, KOP (Homo sapiens, UniProt P41145); test: SafetyScreen44 (Panlabs) panel; format: binding; conditions: 10 μM
T1 construct: Panlabs (SafetyScreen44 panel)
Protocol: (§1) Other targets included with less than ≥50% stimulation at a concentration of 10 μM: Acetylcholinesterase, COX-1, COX-2, MAO-A, PDE3A, PDE4D2, Protein Tyrosine Kinase (LCK), Adenosine A2A, Adrenergic α1A, Adrenergic α2A, Adrenergic β1, Adrenergic β2, Androgen (Testosterone), Calcium Channel L-Type (Dihydropyridine), CB1, CB2, Cholecystokinin CCK1 (CCKA), Dopamine D1, Dopamine D2S, Endothelin ETA, GABAA (Flunitrazepam, Central), Glucocorticoid, Glutamate-NMDA (Agonism), Histamine H1, Histamine H2, Muscarinic M1, Muscarinic M2, Muscarinic M3, Nicotinic Acetylcholine α4β2, (Cytisine), DOP, KOP, MOP, Potassium Channel [KA], Potassium Channel hERG, Serotonin (5-Hydroxytryptamine) 5-HT1A, 5-HT1B, 5-HT3, Na-channel site 2, DAT, NET, SERT, Vasopressin V1A

[1] = target: T2, Cholecystokinin CCK1 (CCKA) (Homo sapiens, UniProt P32238); test: SafetyScreen44 (Panlabs) panel; format: binding; conditions: 10 μM
T2 construct: Panlabs (SafetyScreen44 panel)
Protocol: as §1

CB1 = target: T3, CB1 (Homo sapiens, UniProt P21554); test: SafetyScreen44 (Panlabs) panel; format: binding; conditions: 10 μM
T3 construct: Panlabs (SafetyScreen44 panel)
Protocol: as §1

[2] = target: T4, Nicotinic Acetylcholine α4β2, (Cytisine) (Homo sapiens, UniProt P17787+P43681); test: SafetyScreen44 (Panlabs) panel; format: binding; conditions: 10 μM
T4 construct: Panlabs (SafetyScreen44 panel)
Protocol: as §1

Adenosine A2A = target: T5, Adenosine A2A (Homo sapiens, UniProt P29274); test: SafetyScreen44 (Panlabs) panel; format: binding; conditions: 10 μM
T5 construct: Panlabs (SafetyScreen44 panel)
T5 sequence (P29274 whole entry): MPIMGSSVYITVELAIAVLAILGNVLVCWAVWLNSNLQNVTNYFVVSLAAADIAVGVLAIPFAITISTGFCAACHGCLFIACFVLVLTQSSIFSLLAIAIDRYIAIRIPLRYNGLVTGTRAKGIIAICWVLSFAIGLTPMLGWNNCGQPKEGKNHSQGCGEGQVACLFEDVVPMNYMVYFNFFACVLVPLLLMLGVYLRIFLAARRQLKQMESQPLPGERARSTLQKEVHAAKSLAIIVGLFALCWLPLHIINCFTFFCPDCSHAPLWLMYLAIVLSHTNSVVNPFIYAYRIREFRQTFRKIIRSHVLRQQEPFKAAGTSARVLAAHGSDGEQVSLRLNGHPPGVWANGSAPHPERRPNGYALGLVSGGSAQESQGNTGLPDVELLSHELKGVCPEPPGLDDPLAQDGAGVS
Protocol: as §1

Glucocorticoid = target: T6, Glucocorticoid (Homo sapiens, UniProt P04150); test: SafetyScreen44 (Panlabs) panel; format: binding; conditions: 10 μM
T6 construct: Panlabs (SafetyScreen44 panel)
T6 sequence (P04150 whole entry): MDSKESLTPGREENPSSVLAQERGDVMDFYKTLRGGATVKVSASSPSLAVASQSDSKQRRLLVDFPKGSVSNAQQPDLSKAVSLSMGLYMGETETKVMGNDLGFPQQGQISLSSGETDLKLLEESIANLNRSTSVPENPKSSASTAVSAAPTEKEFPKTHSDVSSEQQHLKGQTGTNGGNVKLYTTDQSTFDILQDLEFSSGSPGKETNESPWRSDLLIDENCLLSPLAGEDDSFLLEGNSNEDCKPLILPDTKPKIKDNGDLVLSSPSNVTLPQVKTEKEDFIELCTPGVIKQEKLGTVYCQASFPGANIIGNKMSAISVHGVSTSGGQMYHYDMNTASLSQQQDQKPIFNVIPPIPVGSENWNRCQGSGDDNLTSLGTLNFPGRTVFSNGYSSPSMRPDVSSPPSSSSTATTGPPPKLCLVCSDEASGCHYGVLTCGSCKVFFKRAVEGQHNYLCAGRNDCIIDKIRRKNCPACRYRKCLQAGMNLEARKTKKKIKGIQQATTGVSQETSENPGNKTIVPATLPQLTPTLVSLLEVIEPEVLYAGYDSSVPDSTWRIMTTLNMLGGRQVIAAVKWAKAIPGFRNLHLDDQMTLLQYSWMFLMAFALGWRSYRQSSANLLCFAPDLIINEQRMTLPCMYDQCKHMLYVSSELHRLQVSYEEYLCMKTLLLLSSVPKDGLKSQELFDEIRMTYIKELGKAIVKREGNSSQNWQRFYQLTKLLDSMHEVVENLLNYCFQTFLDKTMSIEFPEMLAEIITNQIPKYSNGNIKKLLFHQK
Protocol: as §1

Endothelin ETA = target: T7, Endothelin ETA (Homo sapiens, UniProt P25101); test: SafetyScreen44 (Panlabs) panel; format: binding; conditions: 10 μM
T7 construct: Panlabs (SafetyScreen44 panel)
Protocol: as §1

Dopamine D2S = target: T8, Dopamine D2S (Homo sapiens, UniProt P14416); test: SafetyScreen44 (Panlabs) panel; format: binding; conditions: 10 μM
T8 construct: Panlabs (SafetyScreen44 panel)
T8 sequence (P14416 1-414 isoform P14416-2): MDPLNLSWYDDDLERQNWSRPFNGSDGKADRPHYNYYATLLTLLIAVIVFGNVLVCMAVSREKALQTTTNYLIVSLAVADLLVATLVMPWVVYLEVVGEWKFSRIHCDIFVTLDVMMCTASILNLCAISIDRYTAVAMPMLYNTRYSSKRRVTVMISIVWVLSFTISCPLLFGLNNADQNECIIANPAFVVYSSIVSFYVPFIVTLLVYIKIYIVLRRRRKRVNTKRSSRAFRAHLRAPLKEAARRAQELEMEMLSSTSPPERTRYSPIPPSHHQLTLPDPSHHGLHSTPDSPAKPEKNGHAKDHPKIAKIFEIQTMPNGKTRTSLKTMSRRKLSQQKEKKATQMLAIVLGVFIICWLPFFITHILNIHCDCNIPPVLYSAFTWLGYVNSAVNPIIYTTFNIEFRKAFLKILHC
Protocol: as §1

Histamine H1 = target: T9, Histamine H1 (Homo sapiens, UniProt P35367); test: SafetyScreen44 (Panlabs) panel; format: binding; conditions: 10 μM
T9 construct: Panlabs (SafetyScreen44 panel)
Protocol: as §1

Muscarinic M2 = target: T10, Muscarinic M2 (Homo sapiens, UniProt P08172); test: SafetyScreen44 (Panlabs) panel; format: binding; conditions: 10 μM
T10 construct: Panlabs (SafetyScreen44 panel)
Protocol: as §1

5-HT1B = test: SafetyScreen44 (Panlabs) panel; format: binding; conditions: 10 μM
Protocol: as §1

CB2 = target: T11, CB2 (Homo sapiens, UniProt P34972); test: SafetyScreen44 (Panlabs) panel; format: binding; conditions: 10 μM
T11 construct: Panlabs (SafetyScreen44 panel)
T11 sequence (P34972 whole entry): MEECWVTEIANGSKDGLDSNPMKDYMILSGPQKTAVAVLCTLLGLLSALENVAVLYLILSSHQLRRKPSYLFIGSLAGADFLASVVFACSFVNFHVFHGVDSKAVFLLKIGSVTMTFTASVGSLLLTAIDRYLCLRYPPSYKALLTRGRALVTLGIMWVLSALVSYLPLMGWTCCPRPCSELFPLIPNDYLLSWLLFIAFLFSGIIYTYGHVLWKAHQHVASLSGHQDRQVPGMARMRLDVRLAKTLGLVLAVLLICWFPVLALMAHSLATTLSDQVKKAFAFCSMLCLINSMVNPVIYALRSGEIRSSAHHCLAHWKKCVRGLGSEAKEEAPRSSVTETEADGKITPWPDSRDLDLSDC
Protocol: as §1

Dopamine D1 = target: T12, Dopamine D1 (Homo sapiens, UniProt P21728); test: SafetyScreen44 (Panlabs) panel; format: binding; conditions: 10 μM
T12 construct: Panlabs (SafetyScreen44 panel)
T12 sequence (P21728 whole entry): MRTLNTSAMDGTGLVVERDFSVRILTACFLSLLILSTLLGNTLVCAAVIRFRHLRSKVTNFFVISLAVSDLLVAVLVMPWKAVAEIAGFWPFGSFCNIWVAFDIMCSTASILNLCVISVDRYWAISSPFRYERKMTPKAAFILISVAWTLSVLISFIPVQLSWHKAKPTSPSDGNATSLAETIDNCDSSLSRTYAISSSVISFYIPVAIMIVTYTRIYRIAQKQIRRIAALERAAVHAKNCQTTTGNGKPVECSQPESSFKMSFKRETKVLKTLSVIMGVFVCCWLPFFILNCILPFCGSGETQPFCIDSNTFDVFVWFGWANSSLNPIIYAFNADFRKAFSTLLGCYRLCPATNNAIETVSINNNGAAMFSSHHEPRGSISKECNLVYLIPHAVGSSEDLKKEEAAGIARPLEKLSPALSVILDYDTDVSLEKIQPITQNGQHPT
Protocol: as §1

Adrenergic β2 = target: T13, Adrenergic β2 (Homo sapiens, UniProt P07550); test: SafetyScreen44 (Panlabs) panel; format: binding; conditions: 10 μM
T13 construct: Panlabs (SafetyScreen44 panel)
T13 sequence (P07550 whole entry): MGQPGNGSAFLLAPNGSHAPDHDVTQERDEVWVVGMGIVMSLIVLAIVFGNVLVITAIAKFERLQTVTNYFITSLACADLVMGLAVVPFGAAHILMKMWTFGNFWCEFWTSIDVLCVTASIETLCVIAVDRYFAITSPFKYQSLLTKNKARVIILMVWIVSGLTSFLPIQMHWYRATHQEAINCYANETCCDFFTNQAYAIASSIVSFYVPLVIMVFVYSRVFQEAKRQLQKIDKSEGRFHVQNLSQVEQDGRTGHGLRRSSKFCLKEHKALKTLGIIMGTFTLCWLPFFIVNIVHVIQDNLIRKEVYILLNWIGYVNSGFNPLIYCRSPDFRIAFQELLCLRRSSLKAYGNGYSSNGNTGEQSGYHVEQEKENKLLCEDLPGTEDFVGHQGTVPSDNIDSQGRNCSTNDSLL
Protocol: as §1

Glutamate-NMDA (Agonism) = test: SafetyScreen44 (Panlabs) panel; format: binding; conditions: 10 μM
Protocol: as §1

Adrenergic β1 = target: T14, Adrenergic β1 (Homo sapiens, UniProt P08588); test: SafetyScreen44 (Panlabs) panel; format: binding; conditions: 10 μM
T14 construct: Panlabs (SafetyScreen44 panel)
Protocol: as §1

Potassium Channel hERG = target: T15, Potassium Channel hERG (Homo sapiens, UniProt Q12809); test: SafetyScreen44 (Panlabs) panel; format: binding; conditions: 10 μM
T15 construct: Panlabs (SafetyScreen44 panel)
Protocol: as §1

[3] = target: T16, Serotonin (5-Hydroxytryptamine) 5-HT1A (Homo sapiens, UniProt P08908); test: SafetyScreen44 (Panlabs) panel; format: binding; conditions: 10 μM
T16 construct: Panlabs (SafetyScreen44 panel)
T16 sequence (P08908 whole entry): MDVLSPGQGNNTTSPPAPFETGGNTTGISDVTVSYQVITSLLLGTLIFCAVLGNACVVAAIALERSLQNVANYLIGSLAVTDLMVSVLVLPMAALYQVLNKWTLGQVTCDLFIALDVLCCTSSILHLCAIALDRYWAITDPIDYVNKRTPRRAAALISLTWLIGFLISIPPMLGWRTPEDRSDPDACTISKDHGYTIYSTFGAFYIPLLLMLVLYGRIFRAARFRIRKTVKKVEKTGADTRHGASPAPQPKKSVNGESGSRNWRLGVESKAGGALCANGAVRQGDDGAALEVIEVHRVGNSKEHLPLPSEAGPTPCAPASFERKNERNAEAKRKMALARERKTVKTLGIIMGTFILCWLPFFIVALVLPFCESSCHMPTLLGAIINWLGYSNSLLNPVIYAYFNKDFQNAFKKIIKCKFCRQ
Protocol: as §1

Adrenergic α1A = target: T17, Adrenergic α1A (Rattus norvegicus, UniProt P43140); test: SafetyScreen44 (Panlabs) panel; format: binding; conditions: 10 μM
T17 construct: Panlabs (SafetyScreen44 panel)
T17 sequence (P43140 whole entry): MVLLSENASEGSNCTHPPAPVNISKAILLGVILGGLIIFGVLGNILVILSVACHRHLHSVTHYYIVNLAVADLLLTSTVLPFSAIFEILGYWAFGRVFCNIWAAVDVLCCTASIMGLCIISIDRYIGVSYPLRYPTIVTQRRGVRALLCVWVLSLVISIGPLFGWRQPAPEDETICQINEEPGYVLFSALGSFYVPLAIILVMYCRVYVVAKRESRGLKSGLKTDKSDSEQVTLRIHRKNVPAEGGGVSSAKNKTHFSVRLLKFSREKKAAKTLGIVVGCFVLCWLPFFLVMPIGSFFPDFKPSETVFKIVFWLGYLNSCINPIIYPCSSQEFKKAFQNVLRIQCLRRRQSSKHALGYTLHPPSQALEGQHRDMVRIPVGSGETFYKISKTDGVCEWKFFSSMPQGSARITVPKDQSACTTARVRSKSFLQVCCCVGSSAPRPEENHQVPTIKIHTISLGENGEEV
Protocol: as §1

NET = target: T18, NET (Homo sapiens, UniProt P23975); test: SafetyScreen44 (Panlabs) panel; format: binding; conditions: 10 μM
T18 construct: Panlabs (SafetyScreen44 panel)
T18 sequence (P23975 whole entry): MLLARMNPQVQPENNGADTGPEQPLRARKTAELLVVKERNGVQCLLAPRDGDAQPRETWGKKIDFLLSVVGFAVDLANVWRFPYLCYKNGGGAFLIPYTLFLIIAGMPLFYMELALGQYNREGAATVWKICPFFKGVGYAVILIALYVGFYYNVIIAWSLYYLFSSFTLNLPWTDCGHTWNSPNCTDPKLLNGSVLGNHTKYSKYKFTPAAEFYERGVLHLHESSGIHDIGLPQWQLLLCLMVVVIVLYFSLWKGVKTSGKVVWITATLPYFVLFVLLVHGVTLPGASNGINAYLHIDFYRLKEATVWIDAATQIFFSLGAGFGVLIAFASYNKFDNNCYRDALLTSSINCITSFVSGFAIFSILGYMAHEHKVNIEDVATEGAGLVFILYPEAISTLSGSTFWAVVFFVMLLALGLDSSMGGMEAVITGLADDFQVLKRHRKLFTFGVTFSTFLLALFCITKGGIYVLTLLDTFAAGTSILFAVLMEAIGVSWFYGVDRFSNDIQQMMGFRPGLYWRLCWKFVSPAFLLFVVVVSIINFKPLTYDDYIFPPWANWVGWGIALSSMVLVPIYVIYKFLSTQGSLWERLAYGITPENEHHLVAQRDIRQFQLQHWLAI
Protocol: as §1

Potassium Channel [KA] = test: SafetyScreen44 (Panlabs) panel; format: binding; conditions: 10 μM
Protocol: as §1

DAT = target: T19, DAT (Homo sapiens, UniProt Q01959); test: SafetyScreen44 (Panlabs) panel; format: binding; conditions: 10 μM
T19 construct: Panlabs (SafetyScreen44 panel)
Protocol: as §1

DOP = target: T20, DOP (Homo sapiens, UniProt P41143); test: SafetyScreen44 (Panlabs) panel; format: binding; conditions: 10 μM
T20 construct: Panlabs (SafetyScreen44 panel)
Protocol: as §1

SERT = target: T21, SERT (Homo sapiens, UniProt P31645); test: SafetyScreen44 (Panlabs) panel; format: binding; conditions: 10 μM
T21 construct: Panlabs (SafetyScreen44 panel)
Protocol: as §1

5-HT2A = 5-HT2A (Homo sapiens, UniProt P28223); test: IP1 agonist functional assay; format: cell-based; conditions: 5HT2A versus 5HT2B, relative agonism potencies
5-HT2A, sequence (P28223 whole entry): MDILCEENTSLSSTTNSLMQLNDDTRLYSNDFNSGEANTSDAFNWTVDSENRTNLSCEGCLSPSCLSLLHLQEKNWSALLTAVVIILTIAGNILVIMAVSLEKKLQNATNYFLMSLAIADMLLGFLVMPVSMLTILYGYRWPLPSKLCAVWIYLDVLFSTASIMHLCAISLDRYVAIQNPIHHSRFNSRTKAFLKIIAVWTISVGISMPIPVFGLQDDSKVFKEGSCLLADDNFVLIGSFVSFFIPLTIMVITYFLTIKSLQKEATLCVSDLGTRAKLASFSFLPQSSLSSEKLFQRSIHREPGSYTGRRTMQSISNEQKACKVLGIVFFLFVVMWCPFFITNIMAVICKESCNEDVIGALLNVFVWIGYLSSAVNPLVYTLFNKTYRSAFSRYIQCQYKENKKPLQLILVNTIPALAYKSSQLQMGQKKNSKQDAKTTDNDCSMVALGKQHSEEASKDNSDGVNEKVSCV

SMILES: CCC(N)Cc1cc(OC)c(C)cc1OC (stereo not shown) [Ariadne (32), 1-(2,5-dimethoxy-4-methylphenyl)butan-2-amine]
- % stimulation (KOP): < 50%
- % stimulation [1]: < 50%
- % stimulation (CB1): < 50%
- % stimulation [2]: < 50%
- % stimulation (Adenosine A2A): < 50%
- % stimulation (Glucocorticoid): < 50%
- % stimulation (Endothelin ETA): < 50%
- % stimulation (Dopamine D2S): < 50%
- % stimulation (Histamine H1): < 50%
- % stimulation (Muscarinic M2): < 50%
- % stimulation (5-HT1B): < 50%
- % stimulation (CB2): < 50%
- % stimulation (Dopamine D1): < 50%
- % stimulation (Adrenergic β2): < 50%
- % stimulation (Glutamate-NMDA (Agonism)): < 50%
- % stimulation (Adrenergic β1): < 50%
- % stimulation (Potassium Channel hERG): < 50%
- % stimulation [3]: < 50%
- % stimulation (Adrenergic α1A): < 50%
- % stimulation (NET): < 50%
- % stimulation (Potassium Channel [KA]): < 50%
- % stimulation (DAT): < 50%
- % stimulation (DOP): < 50%
- % stimulation (SERT): < 50%
- Selectivity (EC50 2B ÷ EC50 2A) (5-HT2A): 25x

Reference: patent US20240109836A1, “NON-HALL[…] ANALOGS FOR TREATMENT OF NEUROLOGICAL AND PSYCHIATRIC DISORDERS” (The Trustees of Columbia University in the City of New York, priority 2021, published 2024)
